We go through seven compounds from ChEMBL document CHEMBL1148006, “Benzimidazo[1,2-c][1,2,3]thiadiazole-7-sulfonamides as inhibitors of carbonic anhydrase” (Bioorg Med Chem Lett, 2007).

Each structure is given as a SMILES string.

Sequence of Carbonic anhydrase 2 (P00921 whole entry): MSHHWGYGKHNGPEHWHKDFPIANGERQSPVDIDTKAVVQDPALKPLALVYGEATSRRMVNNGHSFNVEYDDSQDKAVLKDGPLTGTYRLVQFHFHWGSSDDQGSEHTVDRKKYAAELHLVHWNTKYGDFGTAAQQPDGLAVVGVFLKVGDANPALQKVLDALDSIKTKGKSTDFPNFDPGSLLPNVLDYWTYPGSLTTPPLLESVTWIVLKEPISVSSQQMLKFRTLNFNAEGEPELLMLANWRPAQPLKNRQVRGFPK

This test concerns the target Carbonic anhydrase 2 (Bos taurus, UniProt P00921). The test is described as follows: Binding affinity to bovine CA2 by typical isothermal titration calorimetry. (In general: In ITC the heat of successive injections is recorded.)
Consider `CN1CCN(C2=S=Nn3c2nc2ccc(S(N)(=O)=O)cc23)CC1`, for which binding was put at a Kd of 391 nM.
`NS(=O)(=O)c1ccc2nc3n(c2c1)N=S=C3Cl` had a Kd of 141 nM.
`CS(=O)(=O)C1=S=Nn2c1nc1ccc(S(N)(=O)=O)cc12` had a Kd of 500 nM.
`NS(=O)(=O)c1ccc2nc3n(c2c1)N=S=C3N1CCOCC1`: binding was characterised by a dissociation constant (Kd) of 38 nM.
`NS(=O)(=O)c1ccc2nc3n(c2c1)N=S=C3` came in with a Kd of 286 nM.
As to `NS(=O)(=O)c1ccc2nc3n(c2c1)N=S=C3Sc1ccccc1`, binding was put at a Kd of 285 nM.
For `CSC1=S=Nn2c1nc1ccc(S(N)(=O)=O)cc12` the value was 322 nM.

As usually defined, the Kd is the free concentration of one partner at which half of the binding sites on the other are occupied at equilibrium, for simple one-to-one binding. A higher Kd goes with weaker binding.
